The numbers were not newly measured in patent US20240278494A1, “THREE-DIMENSIONAL ADDITIVE FABRICATION WITH SUPPORT FLUID” (GEORGIA TECH RESEARCH CORPORATION, priority 2021, published 2024), which cites them from elsewhere.

The conditions of data set [1]: for ρ: Table 2, resin additives; for Density: Table 1, acrylate monomers.
The conditions of data set [2]: Table 2, resin additives.
Test in data set [3]: not given
The source holds these as a separate data set.

Like-named read-outs stand apart in the source and are kept apart here.

As to `C=C(C)C(=O)OC` [MMA, Methyl Methacrylate], the Viscosity (Table 2, resin additives) is recorded as 0.6 cP. The ρ in data set [1] was 0.94 g/mL. Besides, the “γ (surface tension)” value in data set [2] was 31.4 mN/m.
Regarding `C=CC(=O)OCCCC` [BA, Butyl Acrylate], the Viscosity (Table 2, resin additives) is given as 0.92 cP. For the same molecule, the ρ in data set [1] is 0.9 g/mL. For the same molecule, the “γ (surface tension)” value in data set [2] is listed as 20 mN/m.
As to `OCCCO` [1,3-Propanediol], the Viscosity (Table 2, resin additives) is recorded as 52 cP. In addition, the ρ in data set [1] was 1.0597 g/mL. Further, the “γ (surface tension)” value in data set [2] is 46.2 mN/m.
As to `C=C(C)C(=O)OCCOCCOCCOC(=O)C(=C)C` [TEGDMA, Triethylene glycol dimethacrylate], the Viscosity (Table 1, acrylate monomers) is recorded as 50 cP. In addition, in data set [1], the Density is on record as 1.072 g/mL. The Water solubility in data set [3] (Table 1, acrylate monomers) was 2410 µg/mL.
Take `C=CC(=O)OCC(CC)CCCC` (centres unmarked) [EHA, 2-Ethylhexyl acrylate]: for the setting “Table 2, resin additives”, the Viscosity is 1.7 cP. The ρ in data set [1] is given as 0.885 g/mL. Also, in data set [2], the “γ (surface tension)” value is 26 mN/m.
As to `C=CC(=O)OCCCCCCOC(=O)C=C` [HDDA, 1,6-Hexanediol diacrylate], the Viscosity (Table 1, acrylate monomers) is listed as 9 cP. For the same molecule, in data set [1], the Density is on record as 1.02 g/mL. In addition, in data set [3] (Table 1, acrylate monomers), the Water solubility is 100 µg/mL.
Take `CCCCOC(C)=O` [n-Butyl Acetate]: the Viscosity (Table 2, resin additives) is recorded as 1.1002 cP. Further, in data set [1], the ρ was 0.8825 g/mL. Further, the “γ (surface tension)” value in data set [2] is listed as 25.3 mN/m. The Water solubility in data set [3] (Table 2, resin additives) was 680 µg/mL.
On to `COCC(C)OC(C)=O` (centres unmarked) [PGMEA, Propylene glycol methyl ether acetate], for which the Viscosity (Table 2, resin additives) was 0.8 cP. Also, the ρ in data set [1] was 0.962 g/mL. Moreover, the “γ (surface tension)” value in data set [2] was 26.9 mN/m. For the same molecule, the Water solubility in data set [3] (Table 2, resin additives) is 19800 µg/mL.
As to `C1CCC2CCCCC2C1` (centres unmarked) [Decalin, Decahydronaphthalene], where the note is “Table 2, resin additives”, the Viscosity is 1.788 cP. Also, in data set [1], the ρ is reported as 0.896 g/mL.
As for Urethane dimethacrylate [UDMA], under “Table 1, acrylate monomers”, the Viscosity is recorded as 6.75 cP. Further, the Density in data set [1] is 1.129 g/mL.
In the case of `CCCCCCCC/C=C\CCCCCCCC(=O)O` [OA, Oleic Acid], the Viscosity (Table 2, resin additives) is listed as 27.64 cP. The ρ in data set [1] is on record as 0.895 g/mL. The “γ (surface tension)” value in data set [2] was 31.92 mN/m. The Water solubility in data set [3] (Table 2, resin additives) was less than 100 µg/mL.
Turning to Dimethylbenzene [Xylene], the Viscosity (Table 2, resin additives) is listed as 0.812 cP. The ρ in data set [1] is given as 0.865 g/mL. In data set [2], the “γ (surface tension)” value was 28 mN/m. Also, the Water solubility in data set [3] (Table 2, resin additives) is less than 100 µg/mL.
Consider `C=CC(=O)OC` [MA, Methyl Acrylate], for which the Viscosity (Table 2, resin additives) is recorded as 0.6 cP. Further, the ρ in data set [1] is given as 0.95 g/mL. Also, the Water solubility in data set [3] (Table 2, resin additives) was 50000 µg/mL.
